Experimental data taken from patent US20100119454A1, “Use of the conserved Drosophila NPFR1 system for uncovering interacting genes and pathways important in nociception and stress response” (priority 2008, published 2010).

Key:
[1] = system: D. melanogaster post-feeding larvae; experiment: Larval food aversion (migration) assay on soft agar media; type: in vivo, Drosophila melanogaster; conditions: for response of wild type larvae to sugar media: 10% sugar media, wild type larvae (FIG. 2B); for triggering larval wandering: 10% in soft agar paste, post-feeding larvae
Description: Behavioral Assays. The food aversion assay was performed in plastic petri dishes (60 mm in diameter). Each apple juice-agar plate contains a mix (ca. 7 ml) of 1 g of Drosophila agar powder (USB, Swampscott, Mass.) and 6 ml apple-juice solution (0.1 g carbohydrates per ml, equivalent to 20% of frozen concentrate). Other soft agar media were made by mixing 1 g agar powder with 6.5 ml of distilled water or solution containing 10% fructose, 10% lactose, 10% sorbitol or 50 μM capsaicin, respectively. The amount of agar powder may require adjustment depending on agar quality. Twenty-five new post-feeding larvae (96 h AEL) were transferred onto a plate. The larvae were allowed to move freely on the medium, and those that crawled onto the plastic surface became less mobile and eventually formed pupae there. The percent of pupae on agar media was scored after 24 hours. All experiments were performed at room temperature except for the temperature shift assay. In these experiments, larvae and food media were pre-incubated at 30° C. for 60 min before the assay. The larvae were subsequently transferred onto the medium and kept at 30° C. All assays were performed in the dark. At least three separate trials were performed per assay.
(§1) Behavioral assays. The migration assay on soft agar media was performed as described previously (Xu et al., 2008), which is hereby incorporated by reference herein in its entirety. Twenty-five postfeeding larvae (96 h AEL) in one plate were allowed to move freely on the medium, and those that crawled onto the plastic surface became less mobile, and eventually formed pupae there. The percentage of pupae on agar media was scored after 24 hours. The clumping assay was also described in the following, which is hereby incorporated by reference herein in its entirety (Wu et al., 2003). Briefly, 45 mm petri dishes containing solid fructose agar (3% agar in a 10% fructose solution) were coated with a thin layer of yeast paste (0.5 g yeast powder in 10% fructose solution). Thirty larvae per plate were allowed to browse for 30 min, and those in clumps were scored immediately. The social burrowing assay was performed on solid agar media containing apple juice or 10% fructose, as described (Wu et al., 2003). All assays, unless stated otherwise, were performed at room temperature in the dark. At least three separate trials were performed per assay.

[2] = system: pain-expressing sensory neurons; experiment: Calcium imaging (yellow cameleon 2.1, SOARS analysis) of larval sensory neurons; type: cell-based, Drosophila melanogaster
Description: Imaging. The live images of second instar larvae (ca. 48 h AEL) expressing DsRed driven by pain-gal4 were obtained using a Leica epifluorescence microscope. The immunofluorescence images were taken by a Zeiss LSM 510 Meta confocal microscope and processed by Zeiss AIM Image Examiner. […] Larvae were dissected in a modified HL6 solution containing lactose (HL6-Lac, 23.7 mM NaCl, 15 mM MgCl2, 24.8 mM KCl, 0.5 mM CaCl2, 10 mM NaHCO3, 5 mM HEPES, 240 mM lactose)^38. An incision was made along the dorsal midline, and the gut and the fat bodies were removed. The tissue was placed ventral side up in HL6 solution on a silicon-coated coverslip (Sylgard 184, DOW Corning Corp., Midland, Mich.) in a Dvorak-Stotler perfusion chamber (Lucas Highland, Chantilly, Va.). A minute amount of cyanoacrylate glue (Nexaband S/C, Abott Laboratories, North Chicago, Ill.) was applied to the edge of the cuticle using a glass micropipette to immobilize the tissue. The imaging was performed on a Zeiss LSM 510 Meta confocal microscope (Carl Zeiss Microimaging, Thornwood, N.Y.). YC2.1 was excited at 458 nm with an argon laser. Emission fluorescence was filtered by a BP 475-525 filter (cyan) and an LP 530 filter (yellow). 256×256 pixel images for ratiometric analysis were collected at 1 frame s^−1. The tissue was perfused at a rate of 8.3 ul s^−1 with HL6-Lac, periodically alternating with a modified HL6 solution containing fructose (HL6-Fru, with 240 mM fructose substituting 240 mM lactose in HL6-Lac), switching at 120-second intervals for a total of 800 seconds. The images were subsequently analyzed with the SOARS method (Statistical Optimization for the Analysis of Ratiometric Signals, Version 1.1) as described in the following references, which are hereby incorporated by reference herein in their entireties (Fan, X., et al., 2007; Broder, J., et al., 2007), using Matlab (MathWorks, Natick, Mass.; also see http://www.engr.uga.edu/research/groups/atslab/Software.html).
In brief, SOARS is a multivariate statistical optimization procedure performed on both CFP and YFP channels of the FRET imaging data. The analysis results in a set of eigenimages and associated time courses that represent the part of the imaged signal displaying statistically significant spatial correlation and temporal anti-correlation (e.g., the aspects of the signal that are demonstrable due to FRET). These eigenimages represent the spatial distribution of anti-correlated FRET changes in response to sugar stimulation. Because the stimulus was periodic, the time courses were tested for the presence of stimulus-locked activity. To quantify the significance of the periodic part of the FRET response, p-values for a periodic (sinusoidal) response at the stimulus frequency were calculated using multitaper harmonic analysis (a common method for the detection of sinusoids in noisy data) as described in the following references, which are hereby incorporated herein by reference in their entirety. (Thomson 1982; Mitra et al., 1999, Sornborger et al., 2003; Mitra et al., 2008).
In vivo calcium imaging. […] To quantify the significance of anti-correlated FRET response to fructose stimulation, p-values were calculated for a periodic (sinusoidal) response at the stimulus frequency using multitaper harmonic analysis, a common method for the detection of sinusoids in noisy data (Thomson, 1982), which is hereby incorporated by reference herein in its entirety.

rat TRPV1 = biological target: T1, rat TRPV1 (Rattus norvegicus, UniProt O35433, E600K); experiment: Calcium imaging of HEK 293 cells (Fluo-4/Fura-red), capsaicin-induced Ca2+ influx; type: cell-based
T1 construct: expressed in transfected cells; host or cells: HEK293 cells, transient transfection with pcDNA3.1D (Invitrogen) carrying TRPV1 (E600K) cDNA
T1 sequence (O35433 whole entry E600K): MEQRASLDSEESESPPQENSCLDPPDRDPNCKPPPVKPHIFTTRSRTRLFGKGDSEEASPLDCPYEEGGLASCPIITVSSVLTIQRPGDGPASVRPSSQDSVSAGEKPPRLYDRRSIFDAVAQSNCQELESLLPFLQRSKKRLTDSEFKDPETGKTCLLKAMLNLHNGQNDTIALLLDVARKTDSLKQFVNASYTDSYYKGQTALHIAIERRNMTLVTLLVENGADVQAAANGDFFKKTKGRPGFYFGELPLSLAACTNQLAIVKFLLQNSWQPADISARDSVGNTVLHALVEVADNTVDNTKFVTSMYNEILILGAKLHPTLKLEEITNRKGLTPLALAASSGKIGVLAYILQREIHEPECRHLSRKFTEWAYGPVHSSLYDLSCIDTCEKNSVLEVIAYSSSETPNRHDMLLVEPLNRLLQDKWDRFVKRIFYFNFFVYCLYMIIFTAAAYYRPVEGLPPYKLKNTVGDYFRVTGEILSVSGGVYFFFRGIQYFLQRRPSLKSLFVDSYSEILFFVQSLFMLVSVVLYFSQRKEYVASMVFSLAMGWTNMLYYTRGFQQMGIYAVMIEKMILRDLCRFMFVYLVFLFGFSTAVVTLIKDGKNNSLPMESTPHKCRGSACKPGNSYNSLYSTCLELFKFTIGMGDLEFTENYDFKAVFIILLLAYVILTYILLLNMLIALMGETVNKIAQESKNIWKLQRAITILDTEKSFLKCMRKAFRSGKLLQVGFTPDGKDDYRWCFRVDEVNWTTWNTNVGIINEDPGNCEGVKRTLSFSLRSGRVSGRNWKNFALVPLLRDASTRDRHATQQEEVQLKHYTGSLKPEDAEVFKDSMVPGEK
Description: Transfection and Calcium imaging of HEK 293 cells. HEK293 cells were maintained under standard conditions (37° C., 5% CO2) in Dulbecco's Modified Eagle's Medium (Mediatech) supplemented with 10% fetal bovine serum, penicillin and streptomycin. pcDNA3.1D directional expression system (Invitrogen) was used to clone and express rat TRPV1 and fly NPFR1 cDNA in HEK293 cells. TRPV1 cDNA was PCR amplified from TRPV1 (E600K) sequence (Marella et al., 2006), using the following primers: 5′ […] 3′ (SEQ ID NO: 11) and 5′ […] 3′ (SEQ ID NO: 12). NPFR1 cDNA was PCR amplified from an NPFR1 cDNA plasmid(34), using two primers: 5′ […] 3′ (SEQ ID NO: 13) and 5′ […] 3′ (SEQ ID NO: 14). HEK293 cells were cultured on 8-well polyornithine-coated chambered coverglasses (Nunc) for 24 hrs before transfection. A suspension of 200 μl of water containing 0.4 μg plasmid DNA and 0.8 μl of Lipofectamine 2000 (Invitrogen) was used for transfection. The amounts of TRPV1 and NPFR1 cNDA used were 20 ng and 200 ng, respectively. pcDNA3.1 vector DNA was supplemented, when necessary, to ensure the equal amount of total DNA per transfection.
Calcium imaging was performed between 36-42 hours post transfection at 23° C. Cells were loaded with 1 μM Fluo-4 and 2 μM Fura-red (Invitrogen) for 90 min in Hanks' balanced salt solution (HBSS; Gibco), washed once with HBSS, and imaged using a Zeiss Axiovert 200M scope equipped with a Zeiss LSM 510 Meta laser scanning module. Dyes were excited at 488 nm with argon laser. Emission fluorescence was filtered by a BP505-530 and an LP585 filter. Images were collected for 300 s upon capsaicin stimulation at 1 frame s^−1, and analyzed with the SOARS analysis. NPF was synthesized by Quality Controlled Biochemicals. NPF and cyclic nucleotide analogs (Sigma) were pre-incubated at 23° C. with cells for 20-25 min before adding capsaicin.

[3] = biological target: T2, VR1E600K, a variant of vanilloid receptor TRPV1 (Rattus norvegicus, UniProt O35433, E600K); experiment: Capsaicin avoidance (migration) of larvae expressing mammalian TRPV1 in PAIN neurons; type: in vivo, Drosophila melanogaster
T2 construct: expressed in transfected cells; host or cells: Drosophila melanogaster larvae, PAIN neurons (pain-gal4 x UAS-VR1E600K / UAS-TRPV1 transgenic line, Marella et al. 2006)
T2 sequence (O35433 whole entry E600K, the tested form may be a part): as the sequence (O35433 whole entry E600K) above
Description: To provide further evidence that larval wandering behavior represents an aversive response to fructose, pain-gal4 was used to express a mammalian TRP channel protein VR1E600K, a variant of vanilloid receptor TRPV1 responsive to a spicy substance capsaicin from chili peppers (see the following references, which are incorporated herein by reference in their entireties: Caterina, M. J., et al., 1997; Marella, S., et al., 2006; Tobin, D. M., et al., 2002).
Behavioral assays. The migration assay on soft agar media was performed as described previously (Xu et al., 2008), which is hereby incorporated by reference herein in its entirety. […] The percentage of pupae on agar media was scored after 24 hours. […]

[4] = biological target: T2, VR1E600K, a variant of vanilloid receptor TRPV1; experiment: Two-choice medium preference assay (capsaicin vs capsaicin-free media); type: in vivo
Description: The two-choice medium preference assay was performed on a 2.5% agar plate. The apple juice or water agar paste is the same as described above. 10 μl of 5 mM capsaicin stock solution (in 100% ethanol) or 10 μl ethanol was added to each ml of the agar media. 30 larvae were washed extensively to remove any food particles. They were then placed between the two piles of capsaicin and capsaicin-free media (1 cm in diameter), which are located 4 mm apart. The number of larvae in each medium was recorded after 20 min. A preference index was defined as the fraction of larvae choosing the capsaicin-free medium, minus the fraction of larvae choosing the capsaicin medium.

[5] = system: D. melanogaster post-feeding larvae; experiment: Larval aggregation / cooperative burrowing on solid agar media; type: in vivo, Drosophila melanogaster; conditions: solid 10% fructose agar, post-feeding larvae 96 hr AEL
Description: as §1

rats = conditions: injected into the forebrain of rats, paw-withdraw test; cited from earlier work
[6] = HEK 293 cells, cyclic nucleotide analog pre-incubated 20-25 min before capsaicin

With OC[C@H]1O[C@@](CO)(O[C@H]2O[C@H](CO)[C@@H](O)[C@H](O)[C@H]2O)[C@@H](O)[C@@H]1O [sucrose] the “response of wild type larvae to sugar media” value [1] was “aversive”.

In the case of OC[C@H]1O[C@@H](O[C@H]2[C@H](O)[C@@H](O)C(O)O[C@@H]2CO)[C@H](O)[C@@H](O)[C@H]1O (stereo partly drawn) [lactose], the triggering larval wandering [1] is reported as “not effective” and the Anti-correlated signal ([2]; pain^gal4/+, UAS-YC 2.1/+, 96 h AEL, lactose-lactose alternate, ventral sensory neurons in T2 and T3) is reported as “No”.

In the case of Nc1ncnc2c1nc(Br)n2[C@@H]1O[C@@H]2COP(=O)(O)O[C@H]2[C@H]1O [8-Br-cAMP], the “effect on TRPV1-mediated Ca2+ influx” value (rat TRPV1; [6]) is reported as “significantly increased”.

In the case of COc1cc(CNC(=O)CCCC/C=C/C(C)C)ccc1O [capsaicin], the “response of wild type larvae to capsaicin” value ([1]; wild type Drosophila larvae (no TRPV1)) is reported as “neither attractive nor aversive response”, the “migratory response to capsaicin agar paste” value ([3]; 400 nM capsaicin, larvae expressing UAS-TRPV1 driven by pain-gal4) is reported as “migrate away” and the “response to capsaicin-agar medium, control larvae” value ([3]; 25 μM capsaicin, control larvae (e.g., VR1E600K alone, no driver)) is reported as “no aversive response”. The “migratory response to capsaicin-agar medium” value ([3]; 25 μM capsaicin, post-feeding larvae expressing VR1E600K driven by pain-gal4) was “migrated away”, the “medium preference in two-choice assay, post-feeding larvae” value ([4]; post-feeding VR1E600K-expressing larvae) was “preference for capsaicin-free media” and the “medium preference in two-choice assay, feeding larvae” value ([4]; younger feeding VR1E600K-expressing larvae (74 h AEL)) was “no such preference”. The “time to significant Ca2+ influx in response to capsaicin” value (rat TRPV1; HEK293 cells transfected with TRPV1 cDNA alone, 400 nM capsaicin) was no more than 30 s.

In the case of Nc1nc2c(nc(Br)n2[C@@H]2O[C@@H]3COP(=O)(O)O[C@H]3[C@H]2O)c(=O)[nH]1 [8-Br-cGMP], the “effect on NPFR1 suppression of TRPV1” value (rat TRPV1; HEK 293 cells expressing NPFR1 and TRPV1, in the presence of 8-Br-cGMP) is reported as “significantly enhanced” and the “effect on TRPV1 activity” value (rat TRPV1; [6]) is reported as “slightly reduced”.

With O=C(CO)[C@@H](O)[C@H](O)[C@H](O)CO [fructose] the “response of wild type larvae to sugar media” value [1] was “aversive”, the “larvae that moved away from the medium / pupated outside of the medium” value ([1]; w1118 new post-feeding larvae (ca. 96 h AEL), soft agar paste, apple juice or 10% fructose) was “about 80%” and the “larval grouping behavior on solid medium” value [5] was “aggregation and cooperative burrowing”. The Anti-correlated signal ([2]; pain^gal4/+, UAS-YC 2.1/+, 74 h AEL, lactose-fructose alternate, ventral sensory neurons in T2 and T3 segments) was “No”, the Anti-correlated signal ([2]; pain^gal4/+, UAS-YC 2.1/+, 96 h AEL, lactose-fructose alternate, chordotonal neurons in A1 segment) was “No” and the Anti-correlated signal ([2]; pain^gal4/+, UAS-YC 2.1/+, 96 h AEL, lactose-fructose alternate, ventral sensory neurons in T2 and T3 segments) was “Yes”. For the same molecule, the Anti-correlated signal ([2]; pain^gal4/pain^3, UAS-YC 2.1/+ (pain mutant), 96 h AEL, lactose-fructose alternate, ventral sensory neurons in T2 and T3) was “No”.

In the case of “NPY: abundant signaling peptide in the brain of mammals”, the nociceptive threshold (rats) is given as “significantly elevated”.

For OC[C@@H](O)[C@@H](O)[C@H](O)[C@@H](O)CO [sorbitol], the triggering larval wandering [1] was “not effective”.

B1: NPF: Drosophila neuropeptide F, sole fly homolog of human NPY; synthesized by Quality Controlled Biochemicals (SEQ ID NO: 5) (peptide)
chain: MCQTMRCILVACVALALLAAGCRVEASNSRPPRKNDVNTMADAYKFLQDLDTYYGDRARVRFGKRGSLMDILRNHEMDNINLGKNANNGGEFARGFNEEEIF
modifications: Drosophila melanogaster
In the case of B1, the “effect of NPF on response to capsaicin” value (rat TRPV1; HEK293 cells co-transfected with NPFR1 and TRPV1 cDNAs, in the presence of NPF (1 mM per FIG. 15 legend), 400 nM capsaicin) is reported as “drastically attenuated and delayed responses” and the “effect of NPF on TRPV1 activity” value (rat TRPV1; HEK293 cells transfected with TRPV1 cDNA alone) is reported as “mild reduction”.
